According to US11453632B2, “1-phenyl-2-phenylethane derivative” (KAO CORPORATION, priority 2018, dated 2022):

Molecular target: T1, ERα (Homo sapiens, UniProt P03372)
T1 construct: host or cells: HEK293
T1 sequence (P03372 1-595): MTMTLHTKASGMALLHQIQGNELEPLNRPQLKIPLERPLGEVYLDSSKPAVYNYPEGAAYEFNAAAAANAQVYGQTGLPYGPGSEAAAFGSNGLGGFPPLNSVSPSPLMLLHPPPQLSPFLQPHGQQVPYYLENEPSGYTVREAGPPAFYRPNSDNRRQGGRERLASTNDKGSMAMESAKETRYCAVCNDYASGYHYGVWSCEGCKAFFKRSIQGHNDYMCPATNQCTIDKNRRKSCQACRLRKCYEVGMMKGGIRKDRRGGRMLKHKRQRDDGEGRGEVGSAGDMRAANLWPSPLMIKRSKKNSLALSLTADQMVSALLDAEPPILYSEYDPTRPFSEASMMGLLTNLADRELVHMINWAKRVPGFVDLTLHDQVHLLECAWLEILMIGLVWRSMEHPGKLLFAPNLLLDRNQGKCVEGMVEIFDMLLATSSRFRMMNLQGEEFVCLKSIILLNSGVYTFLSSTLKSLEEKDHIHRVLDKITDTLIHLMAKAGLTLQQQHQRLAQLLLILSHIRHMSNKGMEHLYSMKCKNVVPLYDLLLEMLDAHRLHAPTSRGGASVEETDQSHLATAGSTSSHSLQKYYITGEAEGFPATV
Assay: Ability to activate transcription mediated by ERα (pcDNA3-ERα, pERE luciferase, HEK293 cells)
Format: cell-based
Settings: negative control 0.004573
Method: 1) Experimental Method (Measurement of Transcriptional Activity Mediated by ERs)
HEK293 cells were inoculated at a cell density of 4.0×10^4 cells/well to a 96-well plate. After 12 hours therefrom, the medium was replaced with a culture solution (DMEM containing 5% (v/v) charcoal-treated serum). The cells were cotransfected with pcDNA3-ERα or pcDNA3-ERβ (Promega Corp.) and pERE and pRL-CMV (Promega Corp.) using Lipofectamine 2000 (Invitrogen Corp.) according to the protocol attached to the product. 24 hours after transfection, the medium was replaced with a culture medium containing a test sample, followed by culture for another 24 hours. Then, luciferase activity was measured using Dual-Glo™ Luciferase Assay System (Promega Corp.) according to the attached protocol. The luminescence intensity of firefly luciferase (index for the ability to activate transcription mediated by ERE) was divided by the luminescence intensity of Renilla reniformis luciferase (index for the transfection efficiency of the plasmids) to calculate a relative light unit (RLU).

## Oc1ccc(CC(C=C(F)F)c2ccc(O)cc2F)c(F)c1 (stereo not drawn) [Compound 17-F, 4,4′-(4,4-difluorobut-3-ene-1,2-diyl)bis(3-fluorophenol)]
0.1 pM
  relative light unit (RLU), transcription activation ERα: 0.008213
1 pM
  relative light unit (RLU), transcription activation ERα: 0.01023
10 pM
  relative light unit (RLU), transcription activation ERα: 0.01835
100 pM
  relative light unit (RLU), transcription activation ERα: 0.04125
1000 pM
  relative light unit (RLU), transcription activation ERα: 0.06202
10000 pM
  relative light unit (RLU), transcription activation ERα: 0.05401
